For one assay, the system named is MRSA clinical isolate. As to the kind of experiment: MIC, macrodilution broth.
For the next assay, the system named is E. coil. The assay can be described thus: Zone of inhibition, agar well. The note with it: E.coli; antibiotic amount (5-200 mcg).
The test system of the next assay is S.typhi. As to the kind of experiment: Zone of inhibition, agar well. The note with it: antibiotic amount (5-200 mcg).
In assay [1] the test system is Escherichia coli MDR clinical isolate (stool). The assay can be described thus: Antibiotic sensitivity, Kirby Bauer. The following applies: E.c; Kirby-Bauer antibiotic disc.
The test system of assay [2] is Pseudomonas aeruginosa MDR clinical isolate (sputum). The assay can be described thus: Antibiotic sensitivity, Kirby Bauer.
Assay [3] deals with MRSA clinical isolate (pus). As to the kind of experiment: Antibiotic sensitivity, Kirby Bauer. The note with it: Kirby-Bauer antibiotic disc.
The next assay has as its system S. pyogenes. The assay can be described thus: MIC/MBC broth microdilution. It is filed as cell-based, Streptococcus pyogenes. The note with it: Streptococcus pyogenes.
The test system of the next assay is S. mutans. As to the kind of experiment: MIC/MBC broth microdilution. The note with it: Streptococcus mutans. In kind it is cell-based, Streptococcus mutans.
Another assay relates to S gordonii. As to the kind of experiment: MIC/MBC broth microdilution. It is filed as cell-based, Streptococcus gordonii. The following applies: Streptococcus gordonii.
The subject of the next assay is S. pneumoniae. As to the kind of experiment: MIC/MBC broth microdilution. It is filed as cell-based. The note with it: Streptococcus pneumoniae.
A further assay concerns S. faecalis. As to the kind of experiment: MIC/MBC broth microdilution. It is filed as cell-based, Streptococcus faecalis. The following applies: Enterococcus faecalis.
The next assay concerns S. aureus. The assay can be described thus: MIC/MBC broth microdilution. It is filed as cell-based, Staphylococcus aureus. The following applies: Staphylococcus aureus.
In the next assay the test system is P. aeruginosa. The assay can be described thus: MIC/MBC broth microdilution. It is filed as cell-based, Pseudomonas aeruginosa. The note with it: Pseudomonas aeruginosa.
Another assay relates to E. coli. The assay can be described thus: MIC/MBC broth microdilution. In kind it is cell-based, Escherichia coli. The note with it: Escherichia coli.
Another assay has as its system E. aerogenes. The assay can be described thus: MIC/MBC broth microdilution. In kind it is cell-based, Enterobacter aerogenes. The note with it: Klebsiella aerogenes; E. aerogenes; read-out: MIC.
For a further assay, the system named is E. cloacae. The assay can be described thus: MIC/MBC broth microdilution. It is filed as cell-based. The following applies: Enterobacter cloacae.
The test system of a further assay is S. typhimurium. As to the kind of experiment: MIC/MBC broth microdilution. In kind it is cell-based. The note with it: Salmonella enterica, TYPHIMURIUM
In another assay the test system is S arizona. The assay can be described thus: MIC/MBC broth microdilution. It is filed as cell-based, Salmonella arizona. The note with it: Salmonella.
Another assay concerns S. boydii. The assay can be described thus: MIC/MBC broth microdilution. It is filed as cell-based, Shigella boydii. The following applies: Shigella boydii.
Assay [4] relates to K. pneumoniae. The assay can be described thus: MIC/MBC broth microdilution. It is filed as cell-based, Klebsiella pneumoniae. The following applies: Klebsiella pneumoniae.
A further assay deals with K. oxytoca. As to the kind of experiment: MIC/MBC broth microdilution. In kind it is cell-based. The note with it: Klebsiella oxytoca.
The next assay relates to Ps. Aeruginosa. As to the kind of experiment: Zone of inhibition, agar well. The following applies: antibiotic amount (5-200 mcg).
In another assay the test system is MRSA 2. As to the kind of experiment: Zone of inhibition, agar well. The note with it: antibiotic amount (1-200 mcg).
The subject of another assay is S. aureus ATCC 6538 P. As to the kind of experiment: Zone of inhibition, agar well. The following applies: antibiotic amount (1-200 mcg).
The test system of another assay is Pseudomonas culture. The protocol: (§1) Phenol Resistance. Five-one ml aliquots of each dilution of the test phenol were placed into sterile test tubes and allowed to equilibrate in a 20±2° C. water bath. At 30 second intervals, 0.5 ml of each challenge culture was added to the appropriate dilutions of phenol, agitated, and replaced into the water bath: After the appropriate exposure times of 5, 10, and 15 minutes, a loopful of suspension was removed from the assay tubes and transferred to tubes of letheen broth (LETH). The tubes of LETH were incubated at 37±2° C. for 2 days.

Another assay has as its system Salmonella culture. The following applies: 5, 10 or 15 min. How it is done: as §1
A further assay concerns Staphylococcus culture. The protocol: as §1
The test system of assay [5] is Mycobacterium bovis BCG (TMC 1028). It is filed as cell-based.
The subject of the next assay is B. subtilis. The assay can be described thus: Zone of inhibition, agar well. The note with it: antibiotic amount (1-200 mcg).
Assay [6] deals with K. pneumoniae. The assay can be described thus: Zone of inhibition, agar well. The note with it: antibiotic amount (5-200 mcg).
Assay [7] deals with T1, Hepatitis B virus DNA polymerase (Hepatitis B virus genotype D subtype ayw, UniProt P03156).
T1 construct: from tissue; host or cells: Hepatitis B virus isolated from human subjects, lysed
As to the kind of experiment: DNA polymerase inhibition. It is filed as biochemical. The following applies: read-out: % Inhibition (DNA polymerase). How it is done: Overall approach. Hepatitis B viral extracts from human subjects are incubated with radiolabelled nucleotides and an active inhibitor. Percent inhibition is calculated based on the amount of de novo viral nucleic acid synthesized with respect to lamivudine as a positive control and phosphate buffer saline (PBS) as a negative control.
Specific procedure. Isolated Hepatitis B virus was lysed to extract free polymerase enzyme, which is free from contaminating enzymes. A virus extract (25 ml) was added to a reaction mixture comprising dATP, dGTP, dCTP and [^3H]dTTP nucleotides (25 ml). Active inhibitor (3 ml) was added to the mixture comprising virus extract and nucleotides. The resultant mixture was incubated at 37° C. for 24 hours.
A separate negative control experiment was performed in which phosphate buffer saline (PBS, 3 ml) was used instead of the inhibitor (3 ml).
A separate positive control experiment was performed in which a known DNA polymerase inhibitor (3 ml of lamivudine at a concentration 3 mg/ml) was used instead of the tested inhibitor (3 ml).
The reaction was stopped by adding 25 ml EDTA and 25 ml TCA (trichloroacetic acid). The reaction mixture was then spotted on ionic paper (DEAE paper). The paper was washed three times with TCA and then with ethyl alcohol. […] Radioactivity was measured by a liquid scintillation counter (Blue Star). […]

Assay [8] has as its target Moloney murine leukemia virus reverse transcriptase (MoMuLV) (Moloney murine leukemia virus, UniProt P03355). The assay can be described thus: Reverse transcriptase inhibition. The following applies: 37° C., 24 hours; AZT control at 0.625 microgram/ml. In kind it is biochemical. How it is done:
A commercial viral enzyme preparation of Moloney murine leukemia virus reverse transcriptase (MoMuLV) having Poly(A)dT (primer for RT) was used. […] of the MoMuLV preparation was combined with a mixture of dATP, dGTP, dCTP and [^3H]dTTP nucleotides.
This mixture was combined with 3 ml of the inhibitor to be tested, and the resultant mixture was incubated at 37° C. for 24 hours.
A negative control experiment was performed in which phosphate buffer saline (PBS, 3 ml) was used instead of the inhibitor.
A positive control experiment was performed in which a known reverse transcriptase inhibitor (3 ml of AZT at a concentration 0.625 microgram/ml) was used instead of the tested inhibitor.
The reaction was stopped by adding 25 ml EDTA and 25 ml TCA. The reaction mixture was then spotted on ionic paper (DEAE paper). The paper was washed three times with TCA and then with ethyl alcohol. The filter paper was air dried and put in a scintillation vial with a scintillation cocktail. Radioactivity was measured by a liquid scintillation counter (Blue Star).

Values after ≈ are worked out from the molar mass of the structure shown. Values joined by “and” are separate entries in the source; they are usually repeats but may differ in a detail not shown here. Equal entries are not always repeated. Where two headings read alike, the source gives them in different places.

T1 sequence (P03156 whole entry): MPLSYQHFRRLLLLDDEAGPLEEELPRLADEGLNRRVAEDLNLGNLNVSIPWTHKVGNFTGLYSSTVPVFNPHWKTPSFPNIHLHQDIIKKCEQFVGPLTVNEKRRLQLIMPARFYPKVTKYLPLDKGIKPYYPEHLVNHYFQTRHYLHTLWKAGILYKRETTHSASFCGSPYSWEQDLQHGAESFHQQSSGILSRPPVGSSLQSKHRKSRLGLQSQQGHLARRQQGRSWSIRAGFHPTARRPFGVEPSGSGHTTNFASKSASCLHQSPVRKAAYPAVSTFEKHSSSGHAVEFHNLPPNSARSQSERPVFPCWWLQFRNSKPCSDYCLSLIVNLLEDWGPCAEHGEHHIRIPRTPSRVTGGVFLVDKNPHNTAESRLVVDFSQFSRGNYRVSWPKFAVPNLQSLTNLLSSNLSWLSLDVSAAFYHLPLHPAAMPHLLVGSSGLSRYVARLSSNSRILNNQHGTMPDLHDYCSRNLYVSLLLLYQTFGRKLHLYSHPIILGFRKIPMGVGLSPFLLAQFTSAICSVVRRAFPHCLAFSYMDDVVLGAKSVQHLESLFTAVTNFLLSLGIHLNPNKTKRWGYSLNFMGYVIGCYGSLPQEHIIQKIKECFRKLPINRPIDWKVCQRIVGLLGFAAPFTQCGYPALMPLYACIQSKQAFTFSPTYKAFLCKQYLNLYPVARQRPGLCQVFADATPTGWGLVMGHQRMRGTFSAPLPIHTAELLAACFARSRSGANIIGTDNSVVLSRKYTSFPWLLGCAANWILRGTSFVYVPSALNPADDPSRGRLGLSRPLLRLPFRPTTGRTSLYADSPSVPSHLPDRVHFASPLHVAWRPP

Turning to `NCC[C@H](O)C(=O)N[C@@H]1C[C@H](N)[C@@H](O[C@H]2O[C@H](CN)[C@@H](O)[C@H](O)[C@H]2O)[C@H](O)[C@H]1O[C@H]1O[C@H](CO)[C@@H](O)[C@H](N)[C@H]1O` [Amikacin], the Growth entry was “+” with MRSA clinical isolate (Conc. 0.2 mcg/ml); “+” in the assay on MRSA clinical isolate (Conc. 0.4 mcg/ml); “+” in the assay on MRSA clinical isolate (Conc. 0.6 mcg/ml); “−” in the assay on MRSA clinical isolate (Conc. 0.8 mcg/ml); “−” with MRSA clinical isolate (Conc. 1 mcg/ml); “−” with MRSA clinical isolate (Conc. 2 mcg/ml). In addition, the Growth entry with MRSA clinical isolate (Conc. 3 mcg/ml), in the assay on MRSA clinical isolate (Conc. 4 mcg/ml) and with MRSA clinical isolate (Conc. 5 mcg/ml) was “−” in each case. In the assay with MRSA clinical isolate (Staphylococcus aureus, Nutrient Broth), the minimum inhibitory concentration (MIC) is 0.8 µg/mL (≈ 1.37 µM). The “zone of inhibition, antibiotics” value in the assay with E. coil and in the assay on S.typhi was “Clear” each time. For the same compound, the “Zone size (mm)” value in assay [1] was determined as 20 mm; in [2] (Ps., Kirby-Bauer antibiotic disc), 9 mm; in assay [3], 22 mm. For the same compound, in assay [2] (gram-negative isolate Pseudomonas), the resistance of isolate result is reported as “resistant”.

With `CN(C)[C@@H]1C(O)=C(C(N)=O)C(=O)[C@@]2(O)C(O)=C3C(=O)c4c(O)cccc4[C@@](C)(O)[C@H]3C[C@@H]12` [Tetracycline], the minimal bactericidal concentration (MBC) in the assay on S. pyogenes (read-out: MBC) is above 5 µg/mL; with S. mutans (read-out: MBC), above 5 µg/mL; in the assay on S gordonii (read-out: MBC), 0.625 µg/mL (≈ 1.41 µM); in the assay with S. pneumoniae (read-out: MBC), 0.625 µg/mL (≈ 1.41 µM); in the assay with S. faecalis (read-out: MBC), above 5 µg/mL; with S. aureus (read-out: MBC) it was above 5 µg/mL. In addition, the MBC is 5 µg/mL (≈ 11.3 µM) in the assay on P. aeruginosa (read-out: MBC); above 5 µg/mL with E. coli (read-out: MBC); above 5 µg/mL against E. cloacae; above 5 µg/mL against S. typhimurium; above 5 µg/mL with S arizona (read-out: MBC); above 5 µg/mL in the assay on S. boydii. The MBC against K. pneumoniae [4] and with K. oxytoca was above 5 µg/mL throughout. Besides, the MIC in the assay on S. pyogenes (read-out: MIC) is 0.625 µg/mL (≈ 1.41 µM); in the assay on S. mutans (read-out: MIC), 0.625 µg/mL (≈ 1.41 µM); with S gordonii (read-out: MIC) it was 0.156 µg/mL (≈ 0.351 µM); in the assay on S. pneumoniae (read-out: MIC) it was 0.078 µg/mL (≈ 0.176 µM); with S. faecalis (read-out: MIC), 0.313 µg/mL (≈ 0.704 µM); in the assay with S. aureus (read-out: MIC), 0.313 µg/mL (≈ 0.704 µM). The MIC with P. aeruginosa (read-out: MIC) was 0.078 µg/mL (≈ 0.176 µM); in the assay with E. coli (read-out: MIC) it was 1.67 µg/mL (≈ 3.76 µM); in the assay on E. aerogenes, above 5 µg/mL; in the assay on E. cloacae (read-out: MIC) it was 1.67 µg/mL (≈ 3.76 µM); in the assay on S arizona (read-out: MIC), 0.625 µg/mL (≈ 1.41 µM); in the assay with K. pneumoniae [4] (read-out: MIC), 2.5 µg/mL (≈ 5.63 µM). Also, the “zone of inhibition, antibiotics” value in the assay with E. coil is on record as 19 mm; with Ps. Aeruginosa, “No inhibition”; in the assay on MRSA 2, 0.7 mm; in the assay with S. aureus ATCC 6538 P, 34 mm; with S.typhi it was 16 mm. Also, in assay [3], the “Zone size (mm)” value was 27 mm.

For the compound `Oc1ccccc1` [phenol], the “growth after phenol treatment” value is given as “showed growth” with Pseudomonas culture (1:80 phenol, 5 or 10 min); “no growth” in the assay on Pseudomonas culture (1:80 phenol, 15 min); “showed growth” in the assay with Pseudomonas culture (1:90 phenol, 5, 10 or 15 min); “no growth” with Salmonella culture (1:90 phenol); “showed growth” in the assay on Salmonella culture (1:100 phenol); “showed growth” with Staphylococcus culture (1:60 phenol, 5 or 10 min). Moreover, the “growth after phenol treatment” value in the assay with Staphylococcus culture (1:60 phenol, 15 min) was “no growth”; in the assay with Staphylococcus culture (1:70 phenol, 5, 10 or 15 min), “showed growth”. Besides, the log reduction in assay [5] was around 1.81.

Take Co-Trimoxazole: the “zone of inhibition, antibiotics” value with E. coil is given as 24 mm; in the assay on Ps. Aeruginosa, “Clear”; in the assay with B. subtilis, 15 mm; in the assay with S. aureus ATCC 6538 P it was “Clear”; in the assay on S.typhi it was 27 mm; with K. pneumoniae [6], 19 mm.

With `Nc1ccn([C@@H]2CS[C@H](CO)O2)c(=O)n1` [lamivudine], in assay [7], the inhibition at 3000 µg/mL came out at 31.3%.

`Cc1cn([C@H]2C[C@H](N=[N+]=[N-])[C@@H](CO)O2)c(=O)[nH]c1=O` [AZT, zidovudine]: in assay [8], the “% Inhibition (reverse transcriptase)” value is 31.33% and 18.06%.

With Gentamycin, the “zone of inhibition, antibiotics” value in the assay with E. coil is “Clear”; in the assay with Ps. Aeruginosa it was “No inhibition”; with B. subtilis it was 18 mm; with MRSA 2, 11 mm; in the assay on S. aureus ATCC 6538 P it was 1Clear; with S.typhi, “Clear”. Moreover, the “zone of inhibition, antibiotics” value in the assay on K. pneumoniae [6] was determined as 17 mm. Further, the “Zone size (mm)” value in [1] came out at 19 mm.
